Holding throughout (assay type): cell-based, human
Assay [1] concerns Fibronectin secretion from liver HepG2 cells. In words: Fibronectin secretion (Western blot), HepG2 cells. The settings on record: 10 ug/ml; for % inhibition of Fibronectin secretion: HepG2 cells; for inhibition at 10 µg/mL: Homo sapiens, HepG2, HepG2 cells. In general terms: In western blotting, separated proteins are transferred to a membrane and probed.
Assay [2] deals with Fibronectin secretion from bladder carcinoma cells (HTB-9). In words: Fibronectin secretion (Western blot), HTB-9 cells. The settings on record: 10 ug/ml; for inhibition at 10 µg/mL: Homo sapiens.
Assay [3] relates to Fibronectin secretion from brain glioblastoma T98G cells. The assay can be described thus: Fibronectin secretion (Western blot), T98G cells. The settings on record: 10 ug/ml; for inhibition at 10 µg/mL: Homo sapiens.
Assay [4] deals with Fibronectin secretion from ES2 cells. In words: Fibronectin secretion (Western blot), ES2 cells. To be noted: 10 ug/ml; for % inhibition of Fibronectin secretion: ES2 cells; for inhibition at 10 µg/mL: Homo sapiens, ES-2, ES2 cells. How it is done: Inhibition of Fibronectin secretion is physiological and the determination of its quantity is based on the following criteria: • 1. Fibronectin is secreted from viable cells. Only cell with over 85% viable cells after drug-treatment are employed in these experiments. The viable cells were determined by MTT assay. • 2. For comparison, the immuno-band intensity from each samples are normalized with cell mass. The cell mass was determined by the MTT assay and is assigned as a MTT unit for each cell sample.
Cells: ES2 cells were grew in T-25 flask with RPMI 1640 medium over night before drug-treatment. Drug-treatment: cells cultures were replaced with fresh RPMI medium with Xanifolia-Y (10 ug/ml final concentration) or DMSO (as control) at 0 hour. At 1, 2, 4, 8 and 24 hour, aliquot of culture medium was taken out for Fibronectin determination. Fibronectin was determined by Western blot with monoclonal antibody (SIGMA) specific to human Fibronectin only.
Drug-treatment: cells cultures were replaced with fresh RPMI medium containing Xanifolia-Y (10 ug/ml final concentration) or DMSO (as control) at 0 hour. At 4 hours (A) or 8 hour (B), culture medium was replaced with fresh culture medium without drug. At 2, 4, 8 and 24 hour, aliquot of culture medium was taken out for Fibronectin determination. Fibronectin (FN) was determined by Western blot with monoclonal antibody (SIGMA) specific only to human Fibronectin.
(§1) Drug-treatment: cells cultures were replaced with fresh RPMI medium containing Xanifolia-Y (10 ug/ml final concentration) or DMSO (as control) at 0 hour. At 2, and 18 hour, aliquot of culture medium was taken out for Fibronectin determination (Western blot method). Cell viability at 18 hours was determined by MTT assay. Cultures were replaced with RPMI medium with MTT and incubated for an hour. The formation of formazan was dissolved in DMSO and OD at 570 nm was measured.
Cells and Drug-treatment: same as previous experiments. After 7 or 24 hours, aliquot of culture medium was taken out for Fibronectin determination (Western blot method). Cell viability at 24 hours was determined by MTT assay.
Cells: ES2 cells were grew in RPMI 1640 medium over night before drug-treatment. Drug-treatment: cells cultures were replaced with fresh RPMI medium containing DMSO (as control) [D]; Xanifolia-Y (10 ug/ml) [Y]; or Paclitaxel 10 or 50 ng/ml [T10, ro T50]. After 24 hours, aliquot of culture medium was taken out for Fibronectin determination (Western blot method). Cell viability at 24 hours was determined by MTT assay.
The amount of Fibronectin secreted by cells into medium was determined by Western blot assay. The amount of Fibronectin secreted per cells basis was determined by dividing the Western-band intensity with the MTT unit.
Western Blot: Spent culture medium (0.6 ml) was mixed with SDS sample buffer (0.2 ml), boiled for 3 minutes before loading to SDS gel. Samples (60 ul/lane) were applied to a 6% SDS gel and electrophoresis was conducted with 100 volts for 2 hours. Protein was transferred to a nitrocellulose paper electrophoretically (30 min at 100 volts). The Western blot was incubated with the first antibody (mouse anti-FN, specific to human FN, SIGMA F0916) and second antibody (Anti-mouse IgG AP conjugated, Promega S3721). The immunobands were developed with BCIP/NBT color development system (Promega S3771).

The test system of assay [5] is Fibronectin secretion from lung carcinoma cells (H460). In words: Fibronectin secretion (Western blot), H460 cells. To be noted: 10 ug/ml; for % inhibition of Fibronectin secretion: H460 cells; for inhibition at 10 µg/mL: Homo sapiens, NCI-H460, H460 cells.
Assay [6] relates to Fibronectin secretion from skin SK-Mel-5 cells. The assay can be described thus: Fibronectin secretion (Western blot), SK-MEL-5 cells. The settings on record: 10 ug/ml; for inhibition at 10 µg/mL: Homo sapiens.
In another assay the test system is ES2(ovarian) cells. The assay can be described thus: MTT assay ES2. The settings on record: ES2 cells. As for the experimental part: (§2) MTT Assay. The procedure for MTT assay followed the method described by Carmichael et al. (1987) with modifications. The cells were seeded into a 96-well plate at concentration of 10,000/well for HTB-9, HeLa, H460, HCT116, T98G and OVCAR-3), 15,000/well for DU145, MCF-7, HepG2 and U2OS), and 40,000/well for K562 for 24 hours before drug-treatment. The cells were then exposed to the drugs for 48 hours (72 hours for HepG2 and U2OS, and 96 hours for MCF-7). After the drug-treatment, MTT (0.5 mg/mL) was added to cultures and incubated for an hour. The formazan (product of the reduction of tetrazolium by viable cells) formed and was dissolved with DMSO and the O.D. at 490 nm, and was measured by an ELISA reader. The MTT level of the cells before drug-treatment was also measured (T0). The % cell-growth (% G) is calculated as: % G=(TD−T0/TC−T0)×100(1), where TC or TD represents O.D. readings of control or drug-treated cells. When T0>TD, then the cytotoxicity (LC) expressed as % of the control is calculated as: % LC=(TD−T0/T0)×100(2).
Methods: ES2 cells were exposed to (i) Xanifolia-Y with concentrations of 40, 20, 10, 5, 2.5, and 1.25 ug/ml; or (ii) Paclitaxel with concentrations of […]; or (iii) Combined Xanifolia-Y and Paclitaxel with concentrations of each drug in same order (for example, 40 ug/ml Y plus 10 ng/ml T; 20 ug/ml Y plus 5 ng/ml T, etc. please see FIG. 28). Cells growth under these conditions was determined by the MTT assay.
as §1

A further assay deals with (Liver) HepG2. The assay can be described thus: MTT assay HepG2. How it is done:
(§3) Cells. Human cancer cell lines were obtained from American Type Culture Collection: HTB-9 (bladder), HeLa-S3 (cervix), DU145 (prostate), H460 (lung), MCF-7 (breast), K562 (leukocytes), HCT116 (colon), HepG2 (liver), U2OS (bone), T98G (brain), SK-MEL-5 (Skin) and OVCAR-3 (ovary). The cells were grown in following culture media: HeLa-53, DU145, MCF-7, Hep-G2 and T98G are in MEN (Earle's salts); HTB-9, H460, K562 and OVCAR-3 in RPMI-1640; HCT-116 and U2OS in McCoy-5A. They are supplemented with 10% fetal calf serum, glutamine and antibiotics, and incubated in an incubator with 5% CO2 humidified at 37° C.
(§4) MTT Assay. The procedure for MTT assay followed the method described by Carmichael et al. (1987) with modifications. […] The formazan (product of the reduction of tetrazolium by viable cells) formed and was dissolved with DMSO and the O.D. at 490 nm, and was measured by an ELISA reader. The MTT level of the cells before drug-treatment was also measured (T0). The % cell-growth (% G) is calculated as: % G=(TD−T0/TC−T0)×100(1), where TC or TD represents O.D. readings of control or drug-treated cells. When T0>TD, then the cytotoxicity (LC) expressed as % of the control is calculated as: % LC=(TD−T0/T0)×100(2).
In general terms: Formazan colour is commonly taken as a measure of viable cells.

The next assay has as its system (Prostate) DU145. The assay can be described thus: MTT assay DU145. As for the experimental part:
as §3, §4

For a further assay, the system named is (Skin) SK-MELS. In words: MTT assay SK-MEL-5. How it is done: as §3, §4
Another assay relates to (Breast)MCF7. The assay can be described thus: MTT assay MCF7. How it is done: as §3, §4
Assay [7] has as its system (bladder)TB9 cells / HTB-9. In words: MTT assay bladder cells. To be noted: (bladder)TB9 cells. As for the experimental part: as §3, §2

The results in this text go back to patent US10213451B2, “Methods and compounds for modulating the secretion or expression of adhesion proteins or angiopoietins of cells” (PACIFIC ARROW LIMITED, priority 2004, dated 2019).

In brackets after ≈: the same amount, converted by molar mass.

In the case of `CC=C(C)C(=O)OC1C(OC(=O)c2ccccc2)C(C)(C)CC2C3=CCC4C5(C)CCC(OC6OC(C(=O)OC)C(O)C(OC7OCC(O)C(O)C7O)C6OC6OC(CO)C(O)C(O)C6O)C(C)(C)C5CCC4(C)C3(C)CC(O)C21CO` [Ba4, 3-O-[β-D-galactopyranosyl(1→2)]-β-D-xylopyranosyl (1→3)-β-D-methylglucuronopyranosyl-21-O-benzoyl, 22-O-angeloyl-3β, 15α, 21β, 22α, 28-pentahydroxyolean-12-ene], the “% inhibition of Fibronectin secretion” value was 28% in assay [1]; 30% in [2]; 24% in assay [3]; 28% in assay [4]; 18% in assay [5]; 10% in assay [6].

For the molecule `C/C=C(/C)C(=O)O[C@H]1[C@H](OC(=O)C(C)C)[C@@]2(CO)C(CC1(C)C)C1=CCC3[C@@]4(C)CC[C@H](O[C@@H]5OC(C(=O)O)[C@@H](O)C(O[C@@H]6O[C@@H](CO)C(O)C6O)C5O[C@@H]5OC(CO)[C@H](O)C(O)C5O)C(C)(C)C4CC[C@@]3(C)[C@]1(C)[C@@H](O)[C@H]2O` (stereo partly drawn) [Xanifolia Y0, 3-O-[β-D-galactopyranosyl(1→2)]-α-L-arabinofuranosyl(1→3)-β-D-glucuronopyranosyl-21-O-angeloyl, 22-O-(2-methylpropanoyl)-3β, 15α, 16α, 21β, 22α, 28-hexahydroxyolean-12-ene], the inhibition (as a rule, the share of the control response that was lost under treatment) at 10 µg/mL in assay [1] was 40%; in assay [2] it was 32%; in [3], 22%; in [4], 34%; in assay [5], 22%; in [6], 27%.

For the molecule `C/C=C(/C)C(=O)O[C@H]1[C@H](OC(=O)/C(C)=C\C)[C@@]2(CO)C(CC1(C)C)C1=CCC3[C@@]4(C)CC[C@H](O[C@@H]5OC(C(=O)O)[C@@H](O)C(O[C@@H]6OC[C@@H](O)C(O)C6O)C5O[C@@H]5OC(CO)[C@H](O)C(O)C5O)C(C)(C)C4CC[C@@]3(C)[C@]1(C)C[C@H]2O` (stereo partly drawn) [Ba1], the inhibition at 10 µg/mL in assay [1] stood at 33%; in assay [2] it was 25%; in assay [3], 26%; in assay [4], 30%; in [5] it was 19%; in assay [6], 10%.

`CC=C(C)C(=O)OC1C(OC(=O)C(C)=CC)C23C(O)CC4(C)C5(C)CCC6C(C)(C)C(OC7OC(C(=O)O)C(O)C(OC8OC(CO)C(O)C(O)C8OC8OC(C)C(O)C(O)C8OC8OC(C)C(O)C(O)C8O)C7OC7OC(CO)C(O)C(O)C7O)CCC6(C)C5CCC4(OC2O)C3CC1(C)C` (stereo not drawn) [Mb5]: the IC50 – broadly, the concentration at which inhibition is half-maximal – is 6.5 µg/mL (≈ 4.44 µM) in the assay with ES2(ovarian) cells; 6.5 µg/mL (≈ 4.44 µM) in the assay on (Liver) HepG2; 7.6 µg/mL (≈ 5.19 µM) in the assay with (Prostate) DU145; 25 µg/mL (≈ 17.1 µM) in the assay on (Skin) SK-MELS; 11 µg/mL (≈ 7.52 µM) in the assay on (Breast)MCF7; 6.5 µg/mL (≈ 4.44 µM) in [7]. Moreover, the “% inhibition of Fibronectin secretion” value in assay [1] was found to be 35%; in assay [2], 28%; in assay [3], 33%; in [4], 35%; in [5] it was 25%; in [6] it was 15%.

Take `C/C=C(/C)C(=O)O[C@@H]1C(O)[C@H](O[C@H]2[C@H](OC(C)=O)[C@@]3(CO)C(CC2(C)C)C2=CCC4[C@@]5(C)CC[C@H](O[C@@H]6OC(C(=O)O)[C@@H](O)[C@@H](O[C@@H]7O[C@@H](CO)[C@@H](O)C7O)C6O[C@@H]6OC(CO)[C@H](O)[C@@H](O)C6O)C(C)(C)C5CC[C@@]4(C)[C@]2(C)C[C@H]3O)OC(C)[C@@H]1OC(=O)/C(C)=C\C` (stereo partly drawn) [Xanifolia Y1, 3-O-[β-D-galactopyranosyl (1→2)]-α-L-arabinofuranosyl (1→3)-β-D-glucuronopyranosyl-21-O-(3,4-diangeloyl)-α-L-rhamnophyranosyl-22-O-acetyl-3β,16α, 21β, 22α, 28-pentahydroxyolean-12-ene]: the inhibition at 10 µg/mL in assay [1] was determined as 33%; in [2], 50%; in [3], 40%; in assay [4], 41%; in assay [5], 13%; in [6], 10%.
